# From patent publication US8648105B2, “Diarylthiohydantoin compounds” (The Regents of the University of California, priority 2006, dated 2014)
# “Also recorded” adds a separate entry of the source.
# Tests used:
# [1] = system: hormone refractory LAPC4 xenograft; experiment: Hormone refractory LAPC4 xenograft model; format: in vivo, mice
# Description: Compounds of the invention are also tested in another xenograft model of hormone refractory prostate cancer, hormone refractory LAPC4. This model was established from passaging of hormone sensitive prostate cancer in castrated mice, which mimics the clinical progression of prostate cancer (2). […].
# [2] = LogP; format: physicochemical
# [3] = system: AR-overexpressed LNCaP xenograft tumors; experiment: AR-overexpressed LNCaP xenograft model in castrated SCID mice; format: in vivo
# Description: FIG. 7 is a graph of tumor size. AR overexpressing LNCaP cells were injected in the flanks of castrated SCID mice, subcutaneously. When tumors reached about 100 cubic mm, they were randomized into five groups. Each group had nine animals. […]. The tumors were measured three-dimensionally, width, length and depth, using a caliper.
# FIG. 8 depicts experimental results of tumor size. At day 18, the animals were imaged via an optical CCD camera, 3 hours after last dose of treatment. A ROI was drawn over the tumor for luciferase activity measurement in photon/second. The right panels is a representation of the ROIs measurements.
# Compounds of the invention are used to examine if the diaryihydantoin derivatives have in vivo effects on hormone refractory prostate cancer. First we examine this compound on xenograft tumors established from AR-overexpressed LNCaP cells. Engineered cells in Matrigel (Collaborative Biomedical) are injected subcutaneously into the flanks of the castrated male SCID mice. Tumor size is measured weekly in three dimensions using calipers. After xenograft tumors established (tumor size at least 40 mm^3), mice with tumors are randomized and treated with different doses of compounds orally once daily. The inhibitory effect on growth of AR-overexpressed LNCaP xenograft model is studied as follows. Mice with established LN-AR xenograft tumors are randomized and treated with indicated compounds orally once daily. Tumor size are measured by caliber.
# All animal experiments were performed in compliance with the guidelines of the Animal Research Committee of the University of California at Los Angeles. Animals were bought from Taconic and maintained in a laminar flow tower in a defined flora colony. LNCaP-AR and LNCaP-vector cells were maintained in RPMI medium supplemented with 10% FBS. 10^6 cells in 100 μl of 1:1 Matrigel to RPMI medium were injected subcutaneously into the flanks of intact or castrated male SCID mice. Tumor size was measured weekly in three dimensions (length×width×depth) using calipers. Mice were randomized to treatment groups when tumor size reached approximately 100 mm^3. Drugs were given orally every day at 10 mg/kg and 50 mg/kg. To obtain pharmacodynamic readout, the animals were imaged via an optical CCD camera, 3 hours after last dose of the treatment. A ROI is drawn over the tumor for luciferase activity measurement in photon/second. The right panels were a representation of the ROIs measurements. […]
# [4] = system: urogenital tract; experiment: Luciferase transgenic mice with testosterone pellet, urogenital tract weight and photon emission (FIG. 22); format: in vivo; settings: castrated mice with testosterone pellet, 10 mg/kg per day, 14 days
# Description: FIG. 22 presents results of an experiment conducted with wild type nontransgenic mice (WT), castrated luciferase transgenic mice (Cast), and non-castrated luciferase transgenic mice (Intact). Data are shown for castrated luciferase transgenic mice treated with an implanted testosterone pellet yielding 12.5 mg per kilogram body weight with a 90 day release period (T/Cast), and data are shown for non-castrated luciferase transgenic mice treated with an implanted testosterone pellet yielding 12.5 mg per kilogram body weight with a 90 day release period (Intact+T). […]. (A) Urogenital tract weight at 14 days. (B) Photon emission rate at 14 days. In all cases, a hormone refractory disease state was not induced.
# […]. Moreover, the higher the dose, the lower the PSA level. […]. The weight and rate of photon emission increased for both intact and castrated mice.
# [5] = system: LNCaP hormone sensitive xenograft; experiment: LNCaP hormone sensitive xenograft model
# Description: Each set included 6 mice. The mice were treated with 10 mg/kg per day.
# [6] = system: 4AR cell line; experiment: Luciferase activity in the 4AR cell line; format: cell-based; settings: 1.25 to 10 μmol
# Excerpt: (§1) NC4 differs from NC3 only in that an amino group is substituted for a hydroxyl group. […] The effect of NC3 and NC4 on luciferase activity in the 1AR cell line was studied by administering various compounds at concentrations ranging from 1.25 to 10 μmol and observing PSA levels. […] The effect of NC3 and NC4 on luciferase activity in the 4AR cell line was studied by administering various compounds at concentrations ranging from 1.25 to 10 μmol and observing luciferase activity. […] The effect of NC3 and NC4 on PSA levels in the LN/AR cell line was studied by administering various compounds at concentrations ranging from 1.25 to 10 μmol and observing luciferase activity.
# [7] = system: 1AR cell line; experiment: Luciferase activity in the 1AR cell line; format: cell-based; settings: 1.25 to 10 μmol
# Excerpt: as §1
# [8] = biological target: T1, AR (Homo sapiens, UniProt P10275); format: cell-based; set-up: Fold induction, AR response reporter
# T1 sequence (P10275 1-920): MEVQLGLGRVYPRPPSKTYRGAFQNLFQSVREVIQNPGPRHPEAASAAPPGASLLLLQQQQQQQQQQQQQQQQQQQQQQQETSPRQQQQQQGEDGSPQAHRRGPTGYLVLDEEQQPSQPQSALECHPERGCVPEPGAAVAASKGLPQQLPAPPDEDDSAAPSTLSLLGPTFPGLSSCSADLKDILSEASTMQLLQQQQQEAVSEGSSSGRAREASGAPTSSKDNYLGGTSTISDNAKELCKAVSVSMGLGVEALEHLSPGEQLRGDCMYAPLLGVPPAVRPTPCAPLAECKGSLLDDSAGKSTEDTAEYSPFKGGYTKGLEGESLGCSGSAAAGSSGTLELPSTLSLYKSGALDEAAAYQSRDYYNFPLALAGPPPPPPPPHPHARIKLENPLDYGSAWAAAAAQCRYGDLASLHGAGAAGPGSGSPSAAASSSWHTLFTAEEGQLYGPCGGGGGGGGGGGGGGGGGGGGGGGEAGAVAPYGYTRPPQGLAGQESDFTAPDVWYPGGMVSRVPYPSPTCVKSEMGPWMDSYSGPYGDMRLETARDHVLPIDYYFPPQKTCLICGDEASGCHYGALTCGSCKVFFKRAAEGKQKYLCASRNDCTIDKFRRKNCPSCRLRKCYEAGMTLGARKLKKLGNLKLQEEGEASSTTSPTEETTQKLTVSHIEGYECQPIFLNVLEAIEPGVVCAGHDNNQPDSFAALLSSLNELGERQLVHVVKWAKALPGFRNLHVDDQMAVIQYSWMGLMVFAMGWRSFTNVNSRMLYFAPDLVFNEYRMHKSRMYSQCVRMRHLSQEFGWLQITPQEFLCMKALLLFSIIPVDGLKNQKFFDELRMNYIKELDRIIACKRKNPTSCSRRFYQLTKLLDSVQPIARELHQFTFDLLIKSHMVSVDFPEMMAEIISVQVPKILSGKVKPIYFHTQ
# Description: It is well established that PSA levels are indicators of AR activities in prostate cancer. […] The LNCaP-AR cells are a line of lymph node carcinoma of prostate cells transduced with a plasmid that makes express androgen receptors. […] After four days incubation, secreted PSA levels were assayed using PSA ELISA kits (American Qualex, San Clemente, Calif.)
# [9] = system: MCF7; experiment: Growth effect on MCF7 cells; format: cell-based; settings: MCF7 breast cancer cells
# [10] = system: DU-145 cells; experiment: MTS growth assay in DU-145 cells; format: cell-based; settings: DU-145, lacks AR expression
# [11] = system: AR; format: cell-based; settings: FIG. 24
# Description: The compounds were subjected to tests using an artificial AR response reporter system in a hormone refractory prostate cancer cell line. […] After two days of incubation, reporter activities were assayed.
# [12] = biological target: T1, AR; format: cell-based; set-up: Fold induction, AR response reporter; settings: AR over expressed LNCaP, absence of R1881
# [13] = system: 3T3; experiment: Growth effect on 3T3 cells; format: cell-based; settings: 3T3 normal mouse fibroblast cell line
# [14] = biological target: T2, glucocorticoid receptor (GR) (Homo sapiens, UniProt P04150); experiment: GR response reporter in LNCaP cells over expressing glucocorticoid receptor; format: cell-based
# T2 construct: expressed in transfected cells; host or cells: LNCaP cells
# T2 sequence (P04150 1-777): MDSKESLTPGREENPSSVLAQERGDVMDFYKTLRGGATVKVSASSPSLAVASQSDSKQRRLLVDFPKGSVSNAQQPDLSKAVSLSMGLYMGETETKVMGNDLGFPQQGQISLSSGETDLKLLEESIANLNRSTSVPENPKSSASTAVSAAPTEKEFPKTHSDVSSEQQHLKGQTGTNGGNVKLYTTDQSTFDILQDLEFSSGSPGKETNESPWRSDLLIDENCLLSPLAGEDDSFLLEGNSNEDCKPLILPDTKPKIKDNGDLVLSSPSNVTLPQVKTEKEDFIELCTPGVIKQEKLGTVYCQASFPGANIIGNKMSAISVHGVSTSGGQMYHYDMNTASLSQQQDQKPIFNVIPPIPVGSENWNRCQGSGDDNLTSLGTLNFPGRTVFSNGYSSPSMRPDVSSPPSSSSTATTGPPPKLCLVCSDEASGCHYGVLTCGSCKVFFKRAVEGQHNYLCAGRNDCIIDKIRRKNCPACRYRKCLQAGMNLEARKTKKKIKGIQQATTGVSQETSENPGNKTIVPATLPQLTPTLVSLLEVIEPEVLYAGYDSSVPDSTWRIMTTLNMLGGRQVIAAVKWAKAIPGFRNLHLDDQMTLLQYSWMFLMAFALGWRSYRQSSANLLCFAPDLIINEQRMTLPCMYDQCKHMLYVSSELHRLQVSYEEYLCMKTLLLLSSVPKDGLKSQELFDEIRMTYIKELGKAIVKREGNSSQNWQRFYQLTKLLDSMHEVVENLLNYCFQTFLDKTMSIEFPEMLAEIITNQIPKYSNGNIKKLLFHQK
# [15] = Pharmacokinetics, drug concentration in mouse serum/plasma by HPLC; settings: in vivo
# Description: Mice were divided into groups of three for each time points. Two mice were not treated with drug and two other mice were treated with vehicle solution. Each group was treated with 10 mg per kilogram of body weight.
# The drug was dissolved in a mixture 1:5:14 of DMSO:PEG400: H20. (Vehicle solution) and was administered into mice through the tail vein. The animals are warmed under a heat lamp for approximately 20 minutes prior to treatment to dilate their tail vein. […] After drug administration, the animals were euthanized via CO2 inhalation at different timepoints: 5 nm, 30 nm, 2 h, 6 h, 16 h. Animals were immediately bleed after exposure to CO2 via cardiac puncture (1 ml BD syringe+27 G ⅝ needle).
# The samples for HPLC analysis were prepared according to the following procedure:
# Blood cells were separated from serum by centrifugation.
# To 400 μl of serum were added 80 μl of a 10 μM solution of an internal standard and 520 μl of acetonitrile. Precipitation occurred.
# The mixture was vortexed for 3 minutes and then placed under ultrasound for 30 minutes.
# The solid particles were filtered off or were separated by centrifugation.
# The filtrate was dried under an argon flow to dryness.
# [16] = system: SkBr3; experiment: Growth effect on SkBr3 cells; format: cell-based; settings: SkBr3 breast cancer cells
# [17] = biological target: T1, AR; format: cell-based; set-up: Fold induction, AR response reporter; settings: LN-AR, absence of R1881
# Description: Activities of AR response reporter were measured.
compound,measurement,setting,value
"CC(O)(CS(=O)(=O)c1ccc(F)cc1)C(=O)Nc1ccc(C#N)c(C(F)(F)F)c1 (stereo not drawn) [Bicalutamide, N-[4-cyano-3-(trifluoromethyl)phenyl]-3-[(4-fluorophenyl)sulfonyl]-2-hydroxy-2-methylpropanamide, reference compound]",growth and PSA expression,[1],did not inhibit growth and PSA expression
same,logP,[2],2.91
same,photon emission associated with luciferase activity,"[3]; FIG. 8, day 18, relative to vehicle",remained about the same or increased
same,tumor growth / tumor volume,"[3]; oral once daily, FIG. 7: 10 or 50 mg/kg, 18 days",did not inhibit growth; also recorded: tumors continued to grow
same,urogenital tract weight and photon emission,[4],decrease in weight and photon emission
same,rate of tumor growth (tumor volume),"[5]; 10 mg/kg per day, FIG. 6",slower than mice treated with vehicle solution
same,PSA levels,"[5]; FIG. 16, relative to vehicle solution",stayed the same or increased
"CC1(C)C(=O)N(c2ccc(C#N)c(C(F)(F)F)c2)C(=S)N1c1ccc(O)cc1 [NC3, 4-[3-(4-hydroxyphenyl)-4,4-dimethyl-5-oxo-2-thioxoimidazolidin-1-yl]-2-trifluoromethylbenzonitrile]",luciferase activity (comparison),[6],less than the luciferase activity upon exposure to NC4
same,luciferase activity (comparison),[7],less than the luciferase activity upon exposure to NC4
same,PSA level (comparison),"[8]; LN/AR cell line, 1.25 to 10 μmol",less than the PSA level upon exposure to NC4
"Cc1ccc(N2C(=S)N(c3ccc(C#N)c(C(F)(F)F)c3)C(=O)C23CCC3)cc1 [NC7, 4-(8-oxo-6-thioxo-5-(4-methylphenyl)-5,7-diazaspiro[3.4]oct-7-yl)-2-trifluoromethylbenzonitrile]",growth effect,[9],no growth effect
same,growth inhibitory effect,[10],no growth inhibitory effect
same,IC50 (comparison),[11],much lower than the IC50 for bicalutamide
same,agonistic activity on secreted PSA,[12],no agonistic activities
same,growth effect,[13],no growth effect
same,effect on GR response reporter,[14],no effect on GR
same,"pharmacokinetic behavior, residence time in blood",[15],metabolize fast
same,"rank by relative PSA level, most active to least active",[8]; 500 nM,NC50>NC48>NC7>NC43>NC44>NC49>NC50>NC45>bicalutamide
same,decrease in PSA level of LNCaP-AR cells (comparison),[8]; 1000 nM,"greater decrease in PSA level of LNCaP-AR cells than NC43, NC44, and NC50"
same,growth effect,[16],no growth effect
same,agonistic activity on AR response reporter,[17],no agonistic activity
